Test results as given in patent US7439223B2, “Nucleophosmin/B23-binding peptide to inhibit tumor growth and regulate transcriptional activity of p53” (Chang Gung University, priority 2005, dated 2008).
Values after ≈ are worked out from the molar mass of the structure shown. Ends that are not written are not given here.

Key:
Ras-3T3 cells [1] = experiment: cytotoxic effect of peptides on Ras-3T3 cell viability; assay type: cell-based; conditions: for effect on cellular viability: 25 to 400 μM
Description: (§1) Regarding the cells and antibodies, MGH-U1 was established from a Grade III bladder transitional cell carcinoma. U1 and Ras-3T3 cells were grown in RPMI 1640 medium supplemented with 10% fetal bovine serum and 1% antibiotics in 5% CO2 humidified incubator at 37° C. The number of viable cells was determined by trypan blue exclusion and counted with a hemocytometer. Antinucleophosmin/B23 mAb, Anti-p53 polyclonal antibody (pAb) and anti-GAPDH were provided.
Rev-NLS (Rev), T-NLS and np-NLS peptides were synthesized. The primary sequences of the peptides and the dissociation constants of their interactions with nucleophosmin/B23 are shown in FIG. 4. Rev, T-NLS, and np-NLS peptides were applied to Ras-3T3 cells in parallel experiments at concentrations ranging from 25 to 400 μM.
In summary a review of the Figures is given. FIGS. 1A-1D, illustrate Nucleophosmin/B23-binding peptide inhibits tumor growth of Ras-3T3 cells and tumors in nude mice. […] After 24 hours of exposure, cells were counted and survival was expressed as the percentage of surviving cells relative to the untreated cells. Data represent means ±standard deviations; n=3. […] The colonies were stained and scored 12 days after seeding and the efficiencies were calculated as the percentage relative to the untreated cells. Values were expressed as the means ± standard deviations for three determinations. […] Mean tumor volume ±standard deviation for each treatment group was plotted (n=5). Statistical differences in tumor volumes were determined by Student's t-test. […] Tumor volumes of Rev- and PBS-treated (control) mice were plotted (n=5). A Student's t-test was used for statistical analysis. Results shown are representative of three independent experiments.

p53 [2] = experiment: p53-dependent luciferase reporter (pGL13) in U1 cells; assay type: cell-based; conditions: 50-150 μM for 3 hours
Excerpt: pp53-TA-Luc contains a p53 response element, located upstream of the minimal TA promoter, the TATA box from the herpes simplex virus thymidine kinase promoter (PTA). Located downstream of PTA is the firefly luciferase reporter gene. Double stranded siRNA oligonucleotides against B23, siB23-297 (sense: 5′-[…]; and antisense: […]), and siB23-191 (sense 5′-[…] and antisense: […]) were synthesized. Two oligonucleotides were annealed and cloned into pSilencer™ siRNA expression vector by EcoR1 and Apa1.
Transfections were performed using Lipofectamine™ Reagent method. Before transfection, cells (2×10^5 per well) were seeded in 6-well plates overnight. […]
p53 protein is known to suppress tumor formation in vivo at least in part through its ability to induce cell death. […] The expression levels of p53 were measured by western blotting. […] Moreover, we analyzed whether the level of p53 changes upon siRNA mediated reduction of the intracellular amount of nucleophosmin/B23. […]
FIGS. 3A-3F illustrate Nucleophosmin/B23 regulates the increase in protein expression of p53. […] Total cell lysates were analyzed by western immunoblotting using antibodies specific for p53 and GAPDH. […] Total cell lysates were analyzed by Western immunoblotting using antibodies specific for nucleophosmin/B23, p53 and GAPDH. […] The cell extracts containing equal amounts of proteins were analyzed for CAT activity and luciferase activities. […]

p53 [3] = experiment: p53 expression level by western blotting in U1 cells; assay type: cell-based; conditions: 25-150 μM for 3 hours or 50 μM for 0.2-7 hours
Description: p53 protein is known to suppress tumor formation in vivo at least in part through its ability to induce cell death. The susceptibility of tumor cells to induction of cell death by cytotoxic drugs is modulated by p53 in many cases. It is then important for us to test whether the anti-tumor activity of nucleophosmin/B23-binding peptide is mediated through a p53 dependent regulation. […] The expression levels of p53 were measured by western blotting. […] In parallel, we transfected cells with a plasmid containing the luciferase reporter gene under the control of an artificial p53 target promoter (pGL13). […] Moreover, we analyzed whether the level of p53 changes upon siRNA mediated reduction of the intracellular amount of nucleophosmin/B23. […]
(§2) FIGS. 3A-3F illustrate Nucleophosmin/B23 regulates the increase in protein expression of p53. […] Total cell lysates were analyzed by western immunoblotting using antibodies specific for p53 and GAPDH. […] Total cell lysates were analyzed by Western immunoblotting using antibodies specific for nucleophosmin/B23, p53 and GAPDH. […] After 3 hours, cells were harvested and were analyzed by Western immunoblotting using antibodies specific for p53 and GAPDH. […] The cell extracts containing equal amounts of proteins were analyzed for CAT activity and luciferase activities. […]

nucleophosmin/B23 = conditions: cited from earlier work
[4] = system: tumors induced by Ras-3T3 cells; experiment: nude mouse xenograft assay, intraperitoneal treatment; assay type: in vivo, nude mice; conditions: 10 mg/20 g body weight intraperitoneally once daily for 14 days, vs PBS
Description: Exponentially growing Ras-3T3 cells were harvested, washed and resuspended in PBS at 3×10^6 cells/ml. Tumor xenografts were established by inoculating one hundred microliters (100 μl) of the cell suspension subcutaneously into the right flanks of the nude mice. To assay the antitumor activity of Rev, T-NLS, and np-NLS peptides, they were administered to tumors as a systemic intraperitoneal or as a local subcutaneous treatment. For intraperitoneal treatment, mice were randomized into 4 groups of 5 animals after grafting.
Animals were treated once daily for 14 days beginning 48 hr after the inoculation of Ras-3T3 cells. […] Three-dimensional measurements were taken with electric caliper and the tumor volumes were calculated using the formula, V=4πxyz/3, where 2x, 2y and 2z were the three perpendicular diameters of the tumor. […] Statistical differences in the tumor volumes were analyzed by the student's t-test. […]
Next, a nude mouse xenograft assay was used to evaluate the antitumor effect of peptides on the growth of tumors induced by Ras-3T3 cells. […] During the course of treatment, tumor growth was monitored daily by caliper measurement.
In summary a review of the Figures is given. […] After 24 hours of exposure, cells were counted and survival was expressed as the percentage of surviving cells relative to the untreated cells. […]

[5] = system: nucleophosmin/B23 over-expressed cells; experiment: cytotoxic effect on nucleophosmin/B23 over-expressed cells
Ras-3T3 cells [6] = experiment: tumor growth in nude mice, DOX, Rev or DOX+Rev subcutaneously adjacent to the tumors; assay type: in vivo; conditions: 20 μg/20 g body weight subcutaneously adjacent to the tumors daily for 5 days
Description: Doxorubicin (DOX), an anthracycline anti-tumor antibiotic, is active against a number of human cancers.
U1 (3×10^5) cells were treated with doxorubicin (DOX, 0.032-1.0 μg/ml). […] After 24 hr of exposure, cells were counted and survival was expressed as the percentage of surviving cells relative to the untreated cells. Data represent means ±standard deviations; n=3. In FIG. 2D, each mouse was inoculated with 3×10^5 Ras-3T3 cells (one site/mouse). […] Tumor volumes of DOX (20 μg/20 g body weight), Rev (1 mg/20 g body weight), DOX (10 μg/20 g body weight)+Rev (0.5 mg/20 g body weight) and PBS-treated (control) mice were plotted (n=5). The relative tumor volumes were expressed as percentages of the initial volumes at first day of treatments. *p<0.05, as compared with control mice. A Student's t-test was used for statistical analysis. Results shown are representative of three independent experiments.

U1 bladder cancer cells = experiment: U1 bladder cancer cell viability; assay type: cell-based; conditions: 24 hr, alone, read-out: concentration required to produce a 50% decrease in cell viability
Description: as §1
U1 (3×10^5) cells were treated with doxorubicin (DOX, 0.032-1.0 μg/ml). […] After 24 hr of exposure, cells were counted and survival was expressed as the percentage of surviving cells relative to the untreated cells. […] The relative tumor volumes were expressed as percentages of the initial volumes at first day of treatments. *p<0.05, as compared with control mice. […]
as §2

With “KRPAATKKAGQAKKKKYC (listed as Homo sapiens) [np-NLS]” the “effect on cellular viability” value (Ras-3T3 cells [1]) was “little or virtually no effect”, the activity against cells (Ras-3T3 cells [1]; at 1 mM (data not shown)) was “no activity” and the “increase in p53-dependent transcription from the pGL13 promoter” value (p53 [2]) was “No such increases”. For the same molecule, the “intracellular amount of p53 (protein expression)” value (p53 [3]) was “No such increases”, the “binding affinity toward nucleophosmin/B23” value (nucleophosmin/B23; in words) was “no binding affinity” and the “inhibition of tumor growth” value [4] was “No inhibition of tumor growth”.

For PKKKRKVEDPYC [T-NLS, PKKKRKVE DPYC], the “effect on cellular viability” value (Ras-3T3 cells [1]) is listed as “little or virtually no effect”, the IC50 (Ras-3T3 cells [1]; read-out: concentration at which there was a 50% decrease in cell viability) is listed as about 1000 µM and the Kd (nucleophosmin/B23; read-out: kd of interaction with nucleophosmin/B23) is listed as 0.824 µM. For the same molecule, the “inhibition of tumor growth” value [4] was 63.6%.

In the case of ARRNRRRRWREYC-NH2 [Rev peptide], the “dose needed to exert similar cytotoxic effect” value [5] is reported as “higher doses”.

With `COc1cccc2c1C(=O)c1c(O)c3c(c(O)c1C2=O)C[C@@](O)(C(=O)CO)C[C@@H]3O[C@H]1C[C@H](N)[C@H](O)[C@H](C)O1` [DOX, Doxorubicin] the “tumor growth versus PBS control” value (Ras-3T3 cells [6]) was “grew more slowly” and the IC50 (U1 bladder cancer cells) was 0.08 µg/mL (≈ 0.147 µM).
